Patent publication US20130039928A1, “COMPOSITIONS AND METHODS FOR REVERSING CORTICOSTEROID RESISTANCE OR TREATING RESPIRATORY INFECTIONS” (priority 2010, published 2013)

Key:
HDAC2 = format: cell-based, human
Procedure: (§1) For inducing corticosteroid resistance, PMs were exposed to cigarette smoke condensate (CSC, 100 μg/ml; Murty Pharmaceuticals, Lexington, Ky.) for 16 h. Exposure to S-nitrosoglutathione (GSNO, 10 μM) was limited to 4 h. […] For assessing corticosteroid responsiveness, macrophages were incubated with dexamethasone (1 μM, Sigma) for 1 h followed by LPS (100 ng/ml, Sigma) for additional 4 h.
HDAC activity was measured using a fluorescent derivative of ε-acetyl-lysine from Enzo life sciences (Farmingdale, N.Y.) according to the manufacturer's recommendations. HDAC2 was immunoprecipitated for analysis of enzymatic activity.
Macrophage cell or lung tissue extracts were prepared by using 100 μL of immunoprecipitation buffer (50 mM Tris-HCl, pH 8.0, 150 mM NaCl, 1.0% Triton X-100, 0.5% NP-40, 0.1% SDS, 0.5% deoxycholate, and complete protease inhibitor cocktail) from Roche (Morristown, N.J.). The lysis mixture was incubated on ice for 15 minutes and microcentrifuged for 10 minutes at 4° C. Extracts were precleared with 20 μL protein A/G sepharose beads (a 50:50 mix) from Thermo scientific (Rockford, Ill.) and 2 μg of normal IgG. After microcentrifugation, 20 μL of protein A/G sepharose conjugated with 5 μg of antibody was used to precipitate HDAC2 (Santa Cruz Biotechnology, Santa Cruz, Calif.) overnight at 4° C. with rotation. The immune complexes were pelleted with gentle centrifugation, washed twice with 1 mL of immunoprecipitation buffer, and divided equally for the final wash for the activity assay and immunoblotting. For the HDAC assay, immunoprecipitates were resuspended in the activity assay buffer (50 mM TrisHCl, pH 8.0; 10% glycerol; 1 mM dithiothreitol; 0.1 mM EDTA, complete protease inhibitor cocktail). For HDAC2-specific western blotting, immune complexes were washed three times with the immunoprecipitation buffer and finally resuspended in Laemmli buffer for the SDS-PAGE.

IL-8 promoter = experiment: ChIP of IL-8 promoter (histone acetylation, HDAC2 binding) in alveolar macrophages; format: cell-based, human
Procedure: as §1
Chromatin immunoprecipitation was performed as described previously (Hogg, J. C. & Timens, W., Annu Rev Pathol (2008)). Briefly, cells were fixed in ˜1% formaldehyde in cell growth media for 10 minutes followed by glycine fixation. Cells were then sonicated in ChIP-lysis buffer containing a protease inhibitor cocktail after incubation on ice for 30 minutes. […] sonication, the samples were spun at maximum speed for 12 minutes in a cold microcentrifuge. The supernatants were then addressed as input samples. A part of the input sample was precleared by using a 50% slurry of protein A/G beads prepared in immunoprecipitation (IP) buffer for 2 hours in the cold, following which the beads were centrifuged out and the supernatant was used for IP. Then the precleared samples were incubated with 2 μg of panacetylated histone H4 antibody (ChIP assay kit; Upstate Biotechnology) or anti-HDAC2 antibody from Santa Cruz Biotechnology. As a control, anti-rabbit IgG antibody was added for 1 hour in the cold. The protein A/G bead slurry was added to each reaction and was rotated overnight. The next day, the beads were washed extensively, and the DNA was reverse crosslinked, eluted in elution buffer, and stored at −80° C. until used for sequencing or PCR validation assays. […] This immunoprecipitated DNA was used for PCR amplification by using the specific gene (IL-8 for humans and MCP-1 for mice) promoter PCR assays. PCR primers were used for the IL-8 promoter (forward: 5′-[…]-3′ and reverse: 5′-[…]-3′) and the MCP-1 promoter (forward: 5′-[…]-3′ and reverse: 5′-[…]-3′).

Nrf2 = settings: COPD alveolar macrophages, 5 μM for 16 h
Procedure: as §1
All immunoblots were performed by using protocols as described previously (Barnes, P. J., N Engl J Med 343, 269-280 (2000)). Rabbit anti-HDAC2 antibody from Santa Cruz Biotechnology (Santa Cruz, Calif.) was used at 1:500 dilutions. Rabbit anti-5-nitroso-cysteine antibody from Alpha diagnostics was used at 1:500 dilutions. Rabbit anti-nitro-tyrosine antibody from Cell Signaling Technology, was used at 1:250 dilution. Rabbit anti-ubiquitin antibody from Santa Cruz Biotechnology (Santa Cruz, Calif.) was used at 1:1000 dilutions. Rabbit anti-GR antibody from Santa Cruz Biotechnology (Santa Cruz, Calif.) was used at a dilution of 1:1000. Rabbit anti-MMP9 antibody from Sigma Aldrich was used at 1:500 dilutions. Rabbit anti-acetyl-lysine antibody from Abcam was used at 1:750 dilutions. Rabbit anti-lamin-B1 from Santa Cruz Biotechnology (Santa Cruz, Calif.) was used at 1:1000 dilutions as a loading control. The Image J program was used for densitometry analyses.
Total RNA was extracted from the cells by lysis and specific binding to a silica membrance (Qiagen RNeasy kit, Qiagen, Valencia, Calif.), and qRT-PCR was performed by using primers and probe sets for human IL-8, NQO1, GCLM, and iNOS (Assay-on-Demand, Applied Biosystems, Foster City, Calif.). A real-time fluorescent PCR system (ABI 7000 Taqman system, Applied Biosystems) was used to perform these assays. β-actin was used as the normalization control.

## C[S+]([O-])CCCCN=C=S (stereo not shown) [sulforaphane]
HDAC2; COPD alveolar macrophages, P<0.01 versus vehicle
  enzymatic activity of HDAC2: approximately 2 fold
HDAC2; in the presence of BSO
  HDAC2 activity: failed to increase HDAC2 activity
HDAC2; treatment after GSNO exposure of alveolar macrophages
  HDAC2 enzymatic activity: significantly increased HDAC2 activity
IL-8 promoter; COPD alveolar macrophages
  HDAC2 binding in the IL-8 promoter: significantly increased the levels of HDAC2 binding
IL-8 promoter; in the presence of buthionine sulfoximine
  HDAC2 binding in the IL-8 promoter: failed to increase HDAC2 binding
IL-8 promoter; sulforaphane treatment with DEX
  histone acetylation on the IL-8 promoter: concomitant reduction
IL-8 promoter; sulforaphane, baseline and after LPS
  histone acetylation in IL-8 promoter: decrease in histone acetylation
Nrf2
  GSH biosynthesizing enzymes (GCLC, GCLM): significantly elevated
  Nrf2-regulated antioxidant genes (NQO1, HO-1): significantly elevated
  Nrf2 nuclear protein levels: significantly elevated
